# From PubChem BioAssay (NCI)
#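 Dose response: 5 concentrations. Exposure: 48 h. Format: 96-well plates. Endpoint: linear interpolation; highest concentration if not reached. GI50 is the concentration that inhibits growth by half. At the TGI there is no net growth.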
# Assays:
# Assay in all cases: NCI anticancer screen, dose series, 48 h
# [1] = tested on: 786-0 renal
# [2] = tested on: A498 renal
# [3] = tested on: A549 NSCLC
# [4] = tested on: ACHN renal
# [5] = tested on: BT-549 breast
# [6] = tested on: CAKI-1 renal
# [7] = tested on: CCRF-CEM leukemia
# [8] = tested on: COLO 205 colon
# [9] = tested on: DU-145 prostate
# [10] = tested on: EKVX NSCLC
# [11] = tested on: HCC-2998 colon
# [12] = tested on: HCT-116 colon
# [13] = tested on: HCT-15 colon
# [14] = tested on: HL-60(TB) leukemia
# [15] = tested on: HOP-62 NSCLC
# [16] = tested on: HOP-92 NSCLC
# [17] = tested on: HS 578T breast
# [18] = tested on: HT29 colon
# [19] = tested on: IGROV1 ovarian
# [20] = tested on: K-562 leukemia
# [21] = tested on: KM12 colon
# [22] = tested on: LOX IMVI melanoma
# [23] = tested on: M14 melanoma
# [24] = tested on: MALME-3M melanoma
# [25] = tested on: MCF7 breast
# [26] = tested on: MDA-MB-231 breast
# [27] = tested on: MDA-MB-435
# [28] = tested on: MDA-N
# [29] = tested on: MOLT-4 leukemia
# [30] = tested on: NCI-H226 lung
# [31] = tested on: NCI-H23 lung
# [32] = tested on: NCI-H460 lung
# [33] = tested on: NCI-H522 lung
# [34] = tested on: NCI/ADR-RES ovarian
# [35] = tested on: OVCAR-3 ovarian
# [36] = tested on: OVCAR-4 ovarian
# [37] = tested on: OVCAR-5 ovarian
# [38] = tested on: OVCAR-8 ovarian
# [39] = tested on: PC-3 prostate
# [40] = tested on: RPMI-8226 leukemia
# [41] = tested on: RXF 393 renal
# [42] = tested on: SF-268 CNS
# [43] = tested on: SF-295 CNS
# [44] = tested on: SF-539 CNS
# [45] = tested on: SK-MEL-2 melanoma
# [46] = tested on: SK-MEL-28 melanoma
# [47] = tested on: SK-MEL-5 melanoma
# [48] = tested on: SK-OV-3 ovarian
# [49] = tested on: SN12C renal
# [50] = tested on: SNB-19 CNS
# [51] = tested on: SNB-75 CNS
# [52] = tested on: SR leukemia
# [53] = tested on: SW-620 colon
# [54] = tested on: T-47D breast
# [55] = tested on: TK-10 renal
# [56] = tested on: U251 CNS
# [57] = tested on: UACC-257 melanoma
# [58] = tested on: UACC-62 melanoma
# [59] = tested on: UO-31 renal
smiles,measurement,setting,value
Nc1nc2[nH]cc(CCc3ccc(C(=O)N[C@@H](CCC(=O)O)C(=O)O)cc3)c2c(=O)[nH]1,GI50,[1],0.0611 µM
same,TGI,[1],> 100 µM
same,GI50,[2],0.124 µM
same,TGI,[2],> 100 µM
same,GI50,[3],0.587 µM
same,TGI,[3],> 100 µM
same,GI50,[4],0.129 µM
same,TGI,[4],> 100 µM
same,GI50,[5],> 71.7 µM
same,TGI,[5],> 100 µM
same,GI50,[6],0.0845 µM
same,TGI,[6],> 100 µM
same,GI50,[7],0.211 µM
same,TGI,[7],> 100 µM
same,GI50,[8],> 34.6 µM
same,TGI,[8],> 100 µM
same,TGI,[9],> 100 µM
same,TGI,[10],> 100 µM
same,GI50,[11],0.0576 µM
same,TGI,[11],> 100 µM
same,GI50,[12],0.127 µM
same,TGI,[12],> 100 µM
same,TGI,[13],> 100 µM
same,GI50,[14],0.684 µM
same,TGI,[14],> 100 µM
same,GI50,[15],0.724 µM
same,TGI,[15],> 100 µM
same,TGI,[16],> 100 µM
same,TGI,[17],> 100 µM
same,GI50,[18],35 µM
same,TGI,[18],> 100 µM
same,TGI,[19],> 100 µM
same,TGI,[20],> 100 µM
same,TGI,[21],> 100 µM
same,GI50,[22],0.111 µM
same,TGI,[22],> 100 µM
same,GI50,[23],0.158 µM
same,TGI,[23],> 100 µM
same,TGI,[24],> 100 µM
same,GI50,[25],0.0246 µM
same,TGI,[25],> 100 µM
same,GI50,[26],> 100 µM
same,TGI,[26],> 100 µM
same,TGI,[27],> 100 µM
same,TGI,[28],> 100 µM
same,GI50,[29],0.53 µM
same,TGI,[29],> 100 µM
same,TGI,[30],> 100 µM
same,TGI,[31],> 100 µM
same,GI50,[32],0.272 µM
same,TGI,[32],> 100 µM
same,TGI,[33],> 100 µM
same,GI50,[34],> 100 µM
same,TGI,[34],> 100 µM
same,TGI,[35],> 100 µM
same,TGI,[36],> 100 µM
same,TGI,[37],> 100 µM
same,GI50,[38],0.154 µM
same,TGI,[38],> 100 µM
same,GI50,[39],> 51.9 µM
same,TGI,[39],> 100 µM
same,GI50,[40],> 65.9 µM
same,TGI,[40],> 100 µM
same,TGI,[41],> 100 µM
same,GI50,[42],0.219 µM
same,TGI,[42],> 100 µM
same,GI50,[43],0.606 µM
same,TGI,[43],> 100 µM
same,GI50,[44],0.0774 µM
same,TGI,[45],> 100 µM
same,TGI,[46],> 100 µM
same,TGI,[47],> 100 µM
same,TGI,[48],> 100 µM
same,GI50,[49],0.737 µM
same,TGI,[49],> 100 µM
same,TGI,[50],> 100 µM
same,TGI,[51],> 100 µM
same,TGI,[52],> 100 µM
same,TGI,[53],> 100 µM
same,TGI,[54],> 100 µM
same,TGI,[55],> 100 µM
same,GI50,[56],14.6 µM
same,TGI,[56],> 100 µM
same,TGI,[57],> 100 µM
same,TGI,[58],> 100 µM
same,GI50,[59],0.19 µM
same,TGI,[59],> 100 µM
O=C1SC(SCc2ccccc2)=NC12CC2c1ccccc1 (stereo not given),TGI,[1],39.2 µM
same,TGI,[2],65.1 µM
same,TGI,[3],81.8 µM
same,TGI,[4],38.2 µM
same,TGI,[5],52.8 µM
same,TGI,[6],40.5 µM
same,TGI,[7],11.1 µM
same,TGI,[8],61.3 µM
same,TGI,[9],> 81 µM
same,TGI,[10],44 µM
same,TGI,[11],28.8 µM
same,TGI,[12],31.4 µM
same,TGI,[13],51.4 µM
same,TGI,[14],21.5 µM
same,TGI,[15],> 82.8 µM
same,TGI,[16],53.1 µM
same,TGI,[17],68.4 µM
same,TGI,[18],54 µM
same,TGI,[19],52.6 µM
same,TGI,[20],55.3 µM
same,TGI,[21],33.2 µM
same,TGI,[22],38 µM
same,TGI,[23],37.8 µM
same,TGI,[24],34.8 µM
same,TGI,[25],40.1 µM
same,TGI,[26],43.5 µM
same,TGI,[27],59.3 µM
same,TGI,[28],49 µM
same,TGI,[29],10.3 µM
same,TGI,[30],52 µM
same,TGI,[31],42 µM
same,TGI,[32],41.4 µM
same,TGI,[33],33.5 µM
same,TGI,[34],63 µM
same,TGI,[35],> 72.7 µM
same,TGI,[36],51.7 µM
same,TGI,[37],38.9 µM
same,TGI,[38],41.8 µM
same,TGI,[39],> 66.8 µM
same,TGI,[40],48.3 µM
same,TGI,[41],37.2 µM
same,TGI,[42],70.1 µM
same,TGI,[43],44.8 µM
same,TGI,[44],37.7 µM
same,TGI,[45],40.1 µM
same,TGI,[46],41.5 µM
same,TGI,[47],34.1 µM
same,TGI,[48],> 100 µM
same,TGI,[49],44.3 µM
same,TGI,[50],71.1 µM
same,TGI,[51],71.6 µM
same,TGI,[52],52.5 µM
same,TGI,[53],53.3 µM
same,TGI,[54],> 100 µM
same,TGI,[55],81.1 µM
same,TGI,[56],39 µM
same,TGI,[57],38.5 µM
same,TGI,[58],32.8 µM
same,TGI,[59],41.2 µM
COc1ccc(C2c3cc4c(cc3OC3(OC)COC(=O)C23)OCO4)c(OC)c1 (stereo not given),TGI,[1],> 61.3 µM
same,TGI,[2],> 92.9 µM
same,TGI,[3],> 100 µM
same,TGI,[4],> 100 µM
same,TGI,[5],> 100 µM
same,TGI,[6],> 100 µM
same,TGI,[7],> 46.8 µM
same,TGI,[8],51.7 µM
same,TGI,[9],> 100 µM
same,TGI,[10],> 73.1 µM
same,TGI,[11],> 100 µM
same,TGI,[12],> 90.7 µM
same,TGI,[13],> 100 µM
same,TGI,[14],9.31 µM
same,TGI,[15],> 100 µM
same,TGI,[16],97.6 µM
same,TGI,[17],27.1 µM
same,TGI,[18],15.1 µM
same,TGI,[19],> 100 µM
same,TGI,[20],34.4 µM
same,TGI,[21],40 µM
same,TGI,[22],> 100 µM
same,TGI,[23],25.8 µM
same,TGI,[24],> 100 µM
same,TGI,[25],90.4 µM
same,TGI,[26],99.5 µM
same,TGI,[27],5.47 µM
same,TGI,[28],5.24 µM
same,TGI,[29],71.2 µM
same,TGI,[30],> 100 µM
same,TGI,[31],> 100 µM
same,TGI,[32],> 100 µM
same,TGI,[33],> 22.5 µM
same,TGI,[34],34.5 µM
same,TGI,[35],> 63 µM
same,TGI,[36],> 100 µM
same,TGI,[37],> 100 µM
same,TGI,[38],> 100 µM
same,TGI,[39],> 100 µM
same,TGI,[40],> 45.5 µM
same,TGI,[41],35.4 µM
same,TGI,[42],> 100 µM
same,TGI,[43],98.9 µM
same,TGI,[44],21.5 µM
same,TGI,[45],> 100 µM
same,TGI,[46],> 100 µM
same,TGI,[47],> 90.1 µM
same,TGI,[48],> 86 µM
same,TGI,[49],> 100 µM
same,TGI,[50],> 100 µM
same,TGI,[51],45.5 µM
same,TGI,[52],> 100 µM
same,TGI,[53],> 100 µM
same,TGI,[54],> 100 µM
same,TGI,[55],> 95.6 µM
same,TGI,[56],> 100 µM
same,TGI,[57],> 100 µM
same,TGI,[58],> 85.9 µM
same,TGI,[59],> 100 µM
